Measurements published in patent US20050208496A1, “Methods of testing for bronchial asthma or chronic obstructive pulmonary disease” (Genox Research, Inc., priority 2002, published 2005).

Test system: respiratory epithelial cells

Question: What does the source list for “IL-13: human IL-13 (Peprotech, Inc.) added to the medium at 50 ng/mL to stimulate respiratory epithelial cells”?
Answer: HLA-F (37421_f_at) expression, fold change upon IL-13 stimulation (lot 1, Day 7, IMM method): 2.1 fold; HLA-F (49203_f_at) expression fold change (lot 1, Day 7, IMM method): 2.1 fold; HS3ST1 (41556_s_at) expression fold change upon IL-13 stimulation (lot 1, Day 7, IMM method): 3.7 fold; HUMRTVLH3 (34702_f_at) expression, fold change upon IL-13 stimulation (lot 1, Day 7, IMM method): 7 fold; IFI27 (425_at) expression, fold change upon IL-13 stimulation (lot 1, Day 7, IMM method): 2.8 fold; IFI35 (464_s_at) expression, fold change upon IL-13 stimulation (lot 1, Day 7, IMM method): 4.6 fold; IFI44 (37641_at) expression, fold change upon IL-13 stimulation (lot 1, Day 7, IMM method): 2.3 fold; IFIT1 (915_at) expression, fold change upon IL-13 stimulation (lot 1, Day 7, IMM method): 2.1 fold; IFIT4 (38584_at) expression, fold change upon IL-13 stimulation (lot 1, Day 7, IMM method): 3.4 fold; IFITM1 (675_at) expression, fold change upon IL-13 stimulation (lot 1, Day 7, IMM method): 8.1 fold; IL13RA2 (1016_s_at) expression fold change upon IL-13 stimulation (lot 1, Day 7, IMM method): 5.3 fold; IL19 (47855_at) expression fold change (lot 1, Day 7, IMM method): 2.6 fold; ISG15 (1107_s_at) expression, fold change upon IL-13 stimulation (lot 1, Day 7, IMM method): 3.8 fold; ISG15 (38432_at) expression, fold change upon IL-13 stimulation (lot 1, Day 7, IMM method): 5 fold; ISG20 (33304_at) expression, fold change upon IL-13 stimulation (lot 1, Day 7, IMM method): 4.2 fold; KIAA0469 (37230_at) expression, fold change upon IL-13 stimulation (lot 1, Day 7, IMM method): 2.4 fold; KIAA0537 (33787_at) expression, fold change upon IL-13 stimulation (lot 1, Day 7, IMM method): 3.3 fold; KIAA1199 (36070_at) expression, fold change upon IL-13 stimulation (lot 1, Day 7, IMM method): 2.3 fold; KIAA1268 (57050_at) expression fold change (lot 1, Day 7, IMM method): 2.4 fold; KIAAI268 (59516_at) expression fold change (lot 1, Day 7, IMM method): 4 fold; KRT16 (601_s_at) expression fold change (lot 1, Day 7, IMM method): 3.5 fold; LOC57118 (51085_at) expression fold change (lot 1, Day 7, IMM method): 5 fold; MAT2A (32571_at) expression fold change upon IL-13 stimulation (lot 1, Day 7, IMM method): 2.4 fold; MDA5 (51920_at) expression fold change (lot 1, Day 7, IMM method): 2.8 fold; MFHAS1 (50388_at) expression fold change (lot 1, Day 7, IMM method): 2.6 fold; MMP7 (668_s_at) expression, fold change upon IL-13 stimulation (lot 1, Day 7, IMM method): 2.8 fold; MX2 (879_at) expression fold change (lot 1, Day 7, IMM method): 2.4 fold; MXI (37014_at) expression fold change (lot 1, Day 7, IMM method): 11.2 fold; NK4 (39119_s_at) expression fold change upon IL-13 stimulation (lot 1, Day 7, IMM method): 2.5 fold; NOS2A (1948_f_at) expression fold change upon IL-13 stimulation (lot 1, Day 7, IMM method): 2.8 fold; NOS2A (48918_at) expression fold change (lot 1, Day 7, IMM method): 2.5 fold; NTRK1 (36805_s_at) expression, fold change upon IL-13 stimulation (lot 1, Day 7, IMM method): 6.5 fold; OAF (39695_at) expression, fold change upon IL-13 stimulation (lot 1, Day 7, IMM method): 5.1 fold; OAS1 (38388_at) expression fold change upon IL-13 stimulation (lot 1, Day 7, IMM method): 3.3 fold; OAS1 (38389_at) expression fold change upon IL-13 stimulation (lot 1, Day 7, IMM method): 3.3 fold; OSF-2 (1451_s_at) expression fold change upon IL-13 stimulation (lot 1, Day 7, IMM method): 30.6 fold; PHKB (46459_at) expression fold change (lot 1, Day 7, IMM method): −2.7 fold; PITPNB (35017_f_at) expression, fold change upon IL-13 stimulation (lot 1, Day 7, IMM method): 2.1 fold; PLS1 (39951_at) expression fold change (lot 1, Day 7, IMM method): 7.9 fold; PSMB9 (38287_at) expression fold change upon IL-13 stimulation (lot 1, Day 7, IMM method): 3.1 fold; RASGRP1 (33291_at) expression fold change (lot 1, Day 7, IMM method): 3.3 fold; RIG-1 (59215_at) expression fold change (lot 1, Day 7, IMM method): 3.8 fold; SECTM1 (41045_at) expression, fold change upon IL-13 stimulation (lot 1, Day 7, IMM method): 14 fold; SERPINB2 (37185_at) expression fold change (lot 1, Day 7, IMM method): 3 fold; SERPINB4 (1549_s_at) expression fold change (lot 1, Day 7, IMM method): 23.9 fold; SIAT1 (41352_at) expression fold change upon IL-13 stimulation (lot 1, Day 7, IMM method): 21.6 fold; SLC26A4, pendrin (36376_at) expression fold change (lot 1, Day 7, IMM method): 28.5 fold; SSI-1 (41592_at) expression, fold change upon IL-13 stimulation (lot 1, Day 7, IMM method): 8.3 fold; STAT1 (33339_g_at) expression fold change (lot 1, Day 7, IMM method): 2.1 fold; TSPAN-3 (38612_at) expression, fold change upon IL-13 stimulation (lot 1, Day 7, IMM method): 3.2 fold; UFD1L (811_at) expression, fold change upon IL-13 stimulation (lot 1, Day 7, IMM method): 3.8 fold; WARS (38121_at) expression fold change upon IL-13 stimulation (lot 1, Day 7, IMM method): 6 fold; cig5 (38549_at) expression, fold change upon IL-13 stimulation (lot 1, Day 7, IMM method): 2.2 fold; diubiquitin (39959_at) expression, fold change upon IL-13 stimulation (lot 1, Day 7, IMM method): 9.7 fold; AA059458 (65626_at) expression change (lot 1 Day 3 AI): −2.3; AA151265 (60939_i_at) expression change (lot 1 Day 3 AI): −2.5; AA160156 (47578_at) expression change (lot 1 Day 3 AI): −2.4; AA422178 (53747_at) expression change (lot 1 Day 3 AI): −5.3; AA456099 (59567_at) expression change (lot 1 Day 3 AI): −2; AA772055 46104_at expression change (lot 1 Day 3 AI): −5.4; AF052107 38262_at expression change (lot 1 Day 3 AI): −2.5; AI050855 (64285_at) expression change (lot 1 Day 3 AI): −3.6; AI264299 (84903_f_at) expression change (lot 1 Day 3 AI): −3.1; AI432375 (49819_at) expression change (lot 1 Day 3 AI): −4.3; AI468340 (72604_at) expression change (lot 1 Day 3 AI): −2; AI760772 (58528_s_at) expression change (lot 1 Day 3 AI): −2.3; AI829641 (84270_at) expression change (lot 1 Day 3 AI): −5.1; AI917602 (49985_at) expression change (lot 1 Day 3 AI): −2.3; AI923984 33546_at expression change (lot 1 Day 3 AI): −3.2; AL040936 (45684_at) expression change (lot 1 Day 3 AI): −2.7; AQP5 32909_at expression change (lot 1 Day 3 AI): −6.3; ARHGEF4 36524_at expression change (lot 1 Day 3 AI): −3.5; ARHV (82231_at) expression change (lot 1 Day 3 AI): −2; AW025596 52637_g_at expression change (lot 1 Day 3 AI): −4.8; BARX2 35425_at expression change (lot 1 Day 3 AI): −3.1; BPGM (51261_at) expression change (lot 1 Day 3 AI): −4; CRABP-II 1057_at expression change (lot 1 Day 3 AI): −4.6; DKFZp434K1210 44682_at expression change (lot 1 Day 3 AI): −4.4; DREV1 (63813_at) expression change (lot 1 Day 3 AI): −2; DSC3a, b 47119_at expression change (lot 1 Day 3 AI): −2.4; EIF4EBP1 (54152_at) expression change (lot 1 Day 3 AI): −2.2; FLJ10298 (62490_f_at) expression change (lot 1 Day 3 AI): −3.7; FLJ20048 (49196_at) expression change (lot 1 Day 3 AI): −2.4; FLJ20373 54030_at expression change (lot 1 Day 3 AI): −2.1; GABRP 40339_at expression change (lot 1 Day 3 AI): −2.2; GJA1 32531_at expression change (lot 1 Day 3 AI): −4.4; GSTA3 58023 at expression change (lot 1 Day 3 AI): −4.6; HEY1 44783_s_at expression change (lot 1 Day 3 AI): −6.2; HIN-1 (46200_at) expression change (lot 1 Day 3 AI): −5.4; HSPC195 44705_at expression change (lot 1 Day 3 AI): −2.5; IVL 36355_at expression change (lot 1 Day 3 AI): −6.8; K1IAA1102 (64345_s_at) expression change (lot 1 Day 3 AI): −2.7; KLF7 34216_at expression change (lot 1 Day 3 AI): −2.5; KLF7 (42769_at) expression change (lot 1 Day 3 AI): −3.2; KRT6B (62998_at) expression change (lot 1 Day 3 AI): −3.4; KRT15 37582_at expression change (lot 1 Day 3 AI): −5.2; LOC51297 (49616_at) expression change (lot 1 Day 3 AI): −9.1; LOC51297 (55440_at) expression change (lot 1 Day 3 AI): −57.3; LOC51297 (55442_g_at) expression change (lot 1 Day 3 AI): −14; LOC51316 (63342_at) expression change (lot 1 Day 3 AI): −2; LOC129642 (58288_at) expression change (lot 1 Day 3 AI): −2.8; LOC131177 (43849_s_at) expression change (lot 1 Day 3 AI): −5.2; LOC131177 (45394_s_at) expression change (lot 1 Day 3 AI): −4.4; MGC13102 (54791_at) expression change (lot 1 Day 3 AI): −6.5; MGC14128 55924_at expression change (lot 1 Day 3 AI): −2.6; MGC14128 (51669_r_at) expression change (lot 1 Day 3 AI): −2.8
